According to US20250144053A1, “A MIXTURE OF UREA, BIURET AND NITRATE AS A DIETARY NON-PROTEIN NITROGEN-SOURCE FOR RUMINANTS AND USES THEREOF” (Yara International ASA, priority 2022, published 2025):

Tests used:
[1] = tested on: ruminal fluid (rumen microbes); test: In vitro methane production in batch culture (Example 1); type: cell-based, Angus crossbred steers; conditions: corn silage-based diet
Protocol: The in vitro incubations were conducted on three separate days (replicates). A representative sample of digesta was collected from different places in the rumen of ruminally cannulated steers and strained through 4 layers of cheesecloth, placed in pre-warmed thermos containers, and transported to the laboratory within 30 minutes after the collection. In the laboratory, the ruminal fluid from the two steers was maintained under constant CO2-flux and was combined in equal proportions. This combined ruminal fluid was mixed with McDougall's buffer (McDougall, 1948) with and without 0.077 g/liter of 10 wt. % ammonium sulfate enriched with ^15N in relation 1:4, and it was used as an inoculum. […] At the end of the 24 hours incubation, the final pH was recorded, the bottles were placed on ice to prevent further microbial fermentation and two 10-ml samples were collected and acidified by adding 20 μl of a 20 vol/vol % of H2SO4-solution and were frozen at minus 20° C. until further analysis. […]
The amount of methane produced was determined by measuring total gas production and the contribution of methane to it. The production of gas was recorded using an Ankom Gas Monitoring System from Ankom Technologies. […] A gas subsample was analyzed to measure methane concentration and calculate the total methane production during the fermentation. […]

[2] = tested on: crossbred yearling steers; test: Animal growth performance with NPN supplementation (Example 2); type: in vivo
From the text: A total of 72 crossbred yearling steers [303 kg±29 kg initial body weight (BW) were stratified by body weight (BW) and randomly allocated to three treatments. All steers consumed a basal diet of corn silage, cotton-gin trash, and a premix of vitamins and minerals.
The steers were housed in pens (8 steers/pen, 3 pens/treatment). The steers were supplemented with three different NPN-sources on an isonitrogenous basis, considering as reference the N provided by urea when included at 1 wt. % of the diet in dry matter (DM-basis.
In Table 5, the composition of the basal diet supplemented with three different types of NPN, i.e. urea (Urea) (46% N, Yara International), a mixture of urea and biuret (UB) (41% N) and a mixture of urea, biuret and nitrate according to the present disclosure (“UBN”) (35% N, 21.3% NO3) is shown.
From day −17 to day −16 relative to the beginning of the experimental period, the steers received 20% of their total supplemental NPN.
From day −15 to day −12 relative to the beginning of the experimental period, the steers received 40% of their total supplemental NPN.
From day −11 to day −8 relative to the beginning of the experimental period, the steers received 60% of their total supplemental NPN.
From day −7 to day −3 relative to the beginning of the experimental period, the steers received 80% of their total supplemental NPN.
From day −2 to the beginning of the experimental period (day 0), the steers received 100% of their total supplemental NPN.
The gain to feed ratio (G: F) was computed as the ratio of the average daily gain (ADG) to daily dry matter intake (DMI). The feed intake was recorded daily. The individual intake was determined via the GrowSafe® intake monitoring system. In cattle management, GrowSafe Systems is a commonly used tool to closely monitor individual animal feeding data using radio frequency identification (RFID) tag technology. The animals are equipped with a unique RFID tag that is read by the feed bunks each time the animal lowers its head into the bunk to consume feed. Average daily weight gain (ADG) and feed efficiency were calculated during the performance evaluation. The ADG was determined by the difference between the final BW and the initial BW divided by the number of days of the performance evaluation (56 days). The initial BW was calculated as the average unshrunk BW of heifers on days 16 and 17. The final BW was the average unshrunk BW measured on days 72 and 73. The unshrunk BW was obtained every 14 days.
In Table 6, the effect of NPN supplementation with Urea, UB and UBN on growth performance is shown. More in particular, the initial and the final BW and the ADG, all expressed in kg, the dry matter intake (DMI) expressed in kg/day and in percentage of BW, the gain to feed ratio (G:F) expressed in kg/kg, the net energy of gain (NEg) expressed in Mcal/kg of DM and the plasma urea nitrogen (PUN) expressed in […] are shown.

NC(N)=O [Urea, urea]
Methane production, mM/g OMd ([1]; per g organic matter digested): 6.86 mM/g OMd
Methane production, mM/g OMi ([1]; per g organic matter incubated): 1.23 mM/g OMi
ADG ([2]; days 0-14): 0.78 kg
G:F ([2]; days 0-14): 0.10 kg/kg
ADG ([2]; days 0-28): 0.81 kg
G:F ([2]; days 0-28): 0.11 kg/kg
G:F ([2]; days 0-42): 0.14 kg/kg
G:F ([2]; days 0-56): 0.14 kg/kg
NEg ([2]; net energy of gain): 0.55 Mcal/kg of DM
